Measured values from ChEMBL document CHEMBL1201862, “PubChem BioAssay data set” (2004).
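Step 1: Grow cells in 96-well plates. Step 2: Expose to compound for 48 hours at 5 concentrations. Step 3: Interpolate endpoints linearly; if unreached, use highest concentration. GI50 marks 50% less growth.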 Calls of active or inactive are those of the source. No stated cut-off is given here; in the data, active = GI50 up to about 1.1 µM and inactive = higher.

Columns and labels:
Assay in all cases: inhibition of tumour cell growth, NCI panel, 48 h
RPMI-8226 = system: RPMI-8226
SNB-75 = system: SNB-75
OVCAR-3 = system: OVCAR-3
SR = system: SR
OVCAR-5 = system: OVCAR-5
NCI-H460 = system: NCI-H460
IGROV-1 = system: IGROV-1
ACHN = system: ACHN
MDA-MB-231 = system: MDA-MB-231
Hs-578T = system: Hs-578T
MCF7 = system: MCF7
SF-295 = system: SF-295
HT-29 = system: HT-29
U-251 = system: U-251
NCI-H522 = system: NCI-H522
CCRF-CEM = system: CCRF-CEM
RXF 393 = system: RXF 393
NCI-H226 = system: NCI-H226
PC-3 = system: PC-3

Row | Compound | GI50 (RPMI-8226) | GI50 (SNB-75) | GI50 (OVCAR-3) | GI50 (SR) | GI50 (OVCAR-5) | GI50 (NCI-H460) | GI50 (IGROV-1) | GI50 (ACHN) | GI50 (MDA-MB-231) | GI50 (Hs-578T) | GI50 (MCF7) | GI50 (SF-295) | GI50 (HT-29) | GI50 (U-251) | GI50 (NCI-H522) | GI50 (CCRF-CEM) | GI50 (RXF 393) | GI50 (NCI-H226) | GI50 (PC-3)
1 | CC1=C(N2CC2)C(=O)C(CO)=C(N2CC2)C1=O | < 0.0142 µM (active) | 0.031 µM (active) | 0.0203 µM (active) | < 0.01 µM (active) | 0.067 µM (active) | < 0.01 µM (active) | 0.0112 µM (active) | < 0.01 µM (active) | 0.173 µM (active) | 0.234 µM (active) | 0.0106 µM (active) | 0.013 µM (active) | 0.0132 µM (active) | 0.0141 µM (active) | 0.013 µM (active) | < 0.01 µM (active) | 0.0231 µM (active) | 0.0506 µM (active) | –
2 | FC(F)(Sc1ncccn1)c1nc2ccccc2o1 | > 100 µM (inactive) | 22 µM (inactive) | > 100 µM (inactive) | 37.8 µM (inactive) | > 100 µM (inactive) | > 100 µM (inactive) | > 100 µM (inactive) | > 100 µM (inactive) | > 100 µM (inactive) | – | > 100 µM (inactive) | > 100 µM (inactive) | > 100 µM (inactive) | 55.5 µM (inactive) | > 100 µM (inactive) | 33.5 µM (inactive) | 79.3 µM (inactive) | > 100 µM (inactive) | 89.1 µM (inactive)
3 | O=C(CC1(O)C(=O)Nc2c(Cl)cccc21)c1ccccc1 (centres undefined) | 49.3 µM (inactive) | 85.9 µM (inactive) | > 100 µM (inactive) | – | > 100 µM (inactive) | > 100 µM (inactive) | – | > 100 µM (inactive) | – | – | – | > 100 µM (inactive) | 84.7 µM (inactive) | > 100 µM (inactive) | > 100 µM (inactive) | > 100 µM (inactive) | > 100 µM (inactive) | > 100 µM (inactive) | –
4 | COC(=O)c1ccc(C)cc1C1CN=NC12Cc1cc(C)c(C)cc1C2=O (centres undefined) | 27.9 µM (inactive) | 35.9 µM (inactive) | 49.5 µM (inactive) | 48.5 µM (inactive) | > 100 µM (inactive) | 37.7 µM (inactive) | > 100 µM (inactive) | 29.5 µM (inactive) | 27 µM (inactive) | 46.5 µM (inactive) | 38.7 µM (inactive) | 47.3 µM (inactive) | 25.3 µM (inactive) | 46.7 µM (inactive) | 27.7 µM (inactive) | 31 µM (inactive) | 31.8 µM (inactive) | 45.1 µM (inactive) | –
5 | Cc1nnc2n1N=C(c1cc(F)c(Cl)cc1Cl)/C(=C/c1ccc(Cl)cc1)S2 | 15.5 µM (inactive) | – | 12.7 µM (inactive) | – | 6.46 µM (inactive) | 13.9 µM (inactive) | 19.6 µM (inactive) | 16.5 µM (inactive) | 15.8 µM (inactive) | 43.1 µM (inactive) | 14.4 µM (inactive) | 13.4 µM (inactive) | 11.7 µM (inactive) | 17 µM (inactive) | 20.7 µM (inactive) | 19.1 µM (inactive) | 17.2 µM (inactive) | 23.2 µM (inactive) | 20.6 µM (inactive)
6 | O=c1[nH][nH]c(=O)n1Cc1ccccc1Cn1c(=O)[nH][nH]c1=O | > 100 µM (inactive) | > 100 µM (inactive) | > 100 µM (inactive) | – | > 100 µM (inactive) | > 100 µM (inactive) | > 100 µM (inactive) | > 100 µM (inactive) | > 100 µM (inactive) | > 100 µM (inactive) | – | > 100 µM (inactive) | > 100 µM (inactive) | > 100 µM (inactive) | > 100 µM (inactive) | > 100 µM (inactive) | > 100 µM (inactive) | > 100 µM (inactive) | > 100 µM (inactive)
7 | O=C(C#CP(=O)(O)c1ccccc1)c1ccccc1 | – | > 100 µM (inactive) | > 100 µM (inactive) | > 100 µM (inactive) | > 100 µM (inactive) | > 100 µM (inactive) | > 100 µM (inactive) | > 100 µM (inactive) | – | > 100 µM (inactive) | > 100 µM (inactive) | > 100 µM (inactive) | > 100 µM (inactive) | > 100 µM (inactive) | > 100 µM (inactive) | – | – | – | > 100 µM (inactive)
8 | C=CCOC(=O)CCCCCCCCCCCCCCCOC(=O)C1=C(CCC[C@@H](C)O[Si](C)(C)C(C)(C)C)NC(=O)N2[C@H](CC3(CC/C=C\[C@H](CC)O[Si](C(C)C)(C(C)C)C(C)C)OCCO3)CC[C@H]12 | > 100 µM (inactive) | > 100 µM (inactive) | > 100 µM (inactive) | – | > 100 µM (inactive) | > 100 µM (inactive) | – | > 100 µM (inactive) | > 100 µM (inactive) | – | > 100 µM (inactive) | > 100 µM (inactive) | – | > 100 µM (inactive) | > 100 µM (inactive) | > 100 µM (inactive) | – | > 100 µM (inactive) | > 100 µM (inactive)
9 | O=c1[nH]c(=O)n(COCc2ccccc2)cc1Nc1ccc(Br)cc1 | > 100 µM (inactive) | – | > 100 µM (inactive) | > 100 µM (inactive) | > 100 µM (inactive) | > 100 µM (inactive) | 0.51 µM (active) | > 100 µM (inactive) | – | > 100 µM (inactive) | > 100 µM (inactive) | 44.5 µM (inactive) | > 100 µM (inactive) | > 100 µM (inactive) | – | > 100 µM (inactive) | 43.2 µM (inactive) | > 100 µM (inactive) | > 100 µM (inactive)
10 | C/C(=N\NC(N)=S)c1ccc2c(c1)Sc1ccccc1O2 | 2.16 µM (inactive) | 2.53 µM (inactive) | 1.02 µM (active) | 0.485 µM (active) | 4.01 µM (inactive) | 2.83 µM (inactive) | – | 4.55 µM (inactive) | 5.05 µM (inactive) | 3.78 µM (inactive) | – | 4.63 µM (inactive) | 1.61 µM (inactive) | 2.37 µM (inactive) | – | 3.67 µM (inactive) | – | 9.23 µM (inactive) | 2.59 µM (inactive)
11 | CCCc1c(O)nc(Nc2nc3ccccc3[nH]2)[nH]c1=O | > 100 µM (inactive) | > 100 µM (inactive) | – | > 100 µM (inactive) | > 100 µM (inactive) | > 100 µM (inactive) | > 100 µM (inactive) | > 100 µM (inactive) | > 100 µM (inactive) | > 100 µM (inactive) | – | > 100 µM (inactive) | > 100 µM (inactive) | > 100 µM (inactive) | 71.3 µM (inactive) | 86.5 µM (inactive) | > 100 µM (inactive) | > 100 µM (inactive) | > 100 µM (inactive)
12 | Nc1c(C(=O)c2ccccc2)[nH]c(NCc2ccccc2)c1C(=S)Nc1ccccc1 | – | > 100 µM (inactive) | > 100 µM (inactive) | > 100 µM (inactive) | > 100 µM (inactive) | > 100 µM (inactive) | > 100 µM (inactive) | > 100 µM (inactive) | > 100 µM (inactive) | > 100 µM (inactive) | > 100 µM (inactive) | > 100 µM (inactive) | > 100 µM (inactive) | > 100 µM (inactive) | > 100 µM (inactive) | > 100 µM (inactive) | > 100 µM (inactive) | > 100 µM (inactive) | –
